Assay results as given in patent US9701664B2, “Fused 1,4-dihydrodioxin derivatives as inhibitors of heat shock transcription factor 1” (Cancer Research Technology Limited, priority 2013, dated 2017).
Like-named read-outs stand apart in the source and are kept apart here.

Experiments:
HSP72 in U2OS cells = test: Cell-based ELISA (Cellisa) assay, U2OS cells: inhibition of 17-AAG-induced HSP72; settings: U2OS cells (Examples 1-168)
Experimental: U2OS cells (5-8×10^4 cells/mL) or SK-OV-3 cells (5-8×10^4 cells/mL) were seeded into 96-well plates and incubated at 37° C. for 48 h. Compounds were then added at a range of concentrations and incubated for 1 h before addition of 17-AAG (250 nM). Cells were then incubated for 18 h. The medium was removed washed 2× with PBS and cells were then fixed with fixing solution (4% paraformaldehyde, 0.3% TritonX-100 in PBS) for 30 min at 4° C. The plates were then washed 2× with PBS before blocking with 5% milk for 30 min at 37° C. After washing the plates 4× with 0.1% Tween-20/deionised water, HSP72 antibody (SPA-810, Enzo Life) was added for 1.5 h at 37° C. Following 4× washes, the plates were incubated with europium-labelled anti-mouse antibody (0.6 ug/ml) in Delfia assay buffer (Perkin Elmer) for 1 h at 37° C. After washing the plates, Delfia enhancement solution was added, shaken for 10 min before reading in the Envision plate reader (Perkin-Elmer) with excitation at 340 nm and emission at 615 nm. The plates were washed again before protein determination using the bicinchoninic acid assay (BCA assay, Pierce Biotechnology). The europium counts were normalised for the amount of protein in each well. The 50% inhibitory concentration value of the compound was then calculated.

U2OS cells = test: Titre Blue cell viability assay, U2OS cells; assay type: cell-based

Compound	IC50 (HSP72 in U2OS cells; Homo sapiens) [nM]	IC50 (U2OS cells; Homo sapiens, U2OS) [nM]	IC50 (HSP72 in U2OS cells) [nM]	IC50 (U2OS cells) [nM]
Cc1ccc(NC(=O)c2ccc3c(c2)OCCO3)cc1NC(=O)c1cnc2[nH]ccc2c1 [Example 100, N-(5-(2,3-dihydrobenzo[b][1,4]dioxine-6-carboxamido)-2-methylphenyl)-1H-pyrrolo[2,3-b]pyridine-5-carboxamide]	43	54		
Cc1ccc(NC(=O)c2ccc3c(c2)OCCO3)cc1NC(=O)c1ccc2nc(CCN3CCCC3)ccc2c1 [Example 59, N-(5-(2,3-dihydrobenzo[b][1,4]dioxine-6-carboxamido)-2-methylphenyl)-2-(2-(pyrrolidin-1-yl)ethyl)quinoline-6-carboxamide]	15	410		
Cc1ccc(NC(=O)c2ccc3c(c2)OCCO3)cc1NC(=O)c1ccc2nc(COCC(C)C)ccc2c1 [Example 151, N-(5-(2,3-dihydrobenzo[b][1,4]dioxine-6-carboxamido)-2-methylphenyl)-2-(isobutoxymethyl)quinoline-6-carboxamide]	100	26		
COc1ccnc2ccc(C(=O)Nc3cc(NC(=O)c4ccc5c(c4)OCCO5)ccc3C)cc12 [Example 11, N-(5-(2,3-dihydrobenzo[b][1,4]dioxine-6-carboxamido)-2-methylphenyl)-4-methoxyquinoline-6-carboxamide]	38	95		
Cc1ccc(NC(=O)c2ccc3c(c2)OCCO3)cc1NC(=O)c1ccc2nc(OC(C)CN3CCCC3)ccc2c1 (centres unmarked) [Example 73, N-(5-(2,3-dihydrobenzo[b][1,4]dioxine-6-carboxamido)-2-methylphenyl)-2-((1-(pyrrolidin-1-yl)propan-2-yl)oxy)quinoline-6-carboxamide]	90	21		
Cc1ccc(NC(=O)c2ccc3c(c2)OCCO3)cc1NC(=O)c1ccc2nc(COC(C)C)ccc2c1 [Example 145, N-(5-(2,3-dihydrobenzo[b][1,4]dioxine-6-carboxamido)-2-methylphenyl)-2-(isopropoxymethyl)quinoline-6-carboxamide]	64	17		
Cc1ccc(NC(=O)c2ccc3c(c2)OCCO3)cc1NC(=O)c1ccc2c(c1)CCN2C [Example 7, N-(5-(2,3-dihydrobenzo[b][1,4]dioxine-6-carboxamido)-2-methylphenyl)-1-methylindoline-5-carboxamide]	55	37		
O=C(Nc1ccc(Cl)c(NC(=O)c2ccc3ncccc3c2)c1)c1ccc2c(c1)OCCO2 [Example 149, N-(2-chloro-5-(2,3-dihydrobenzo[b][1,4]dioxine-6-carboxamido)phenyl)quinoline-6-carboxamide]	63	20		
Cc1ccc(NC(=O)c2ccc3c(c2)OCCO3)cc1NC(=O)c1ccc2c(c1)CCCC2 [Example 34, N-(4-methyl-3-(5,6,7,8-tetrahydronaphthalene-2-carboxamido)phenyl)-2,3-dihydrobenzo[b][1,4]dioxine-6-carboxamide]	850	413		
O=C(Nc1ccc(Br)c(NC(=O)c2ccc3ncccc3c2)c1)c1ccc2c(c1)OCCO2 [Example 138, N-(2-bromo-5-(2,3-dihydrobenzo[b][1,4]dioxine-6-carboxamido)phenyl)quinoline-6-carboxamide]	31	10		
Cc1ccc(NC(=O)c2ccc3c(c2)OCCO3)cc1NC(=O)c1ccc2nc(OC[C@@H]3CCCN3C)ccc2c1 [Example 53, (S)—N-(5-(2,3-dihydrobenzo[b][1,4]dioxine-6-carboxamido)-2-methylphenyl)-2-((1-methylpyrrolidin-2-yl)methoxy)quinoline-6-carboxamide]	7	7		
Cc1ccc(NC(=O)c2ccc3c(c2)OCCO3)cc1NC(=O)c1ccc2nc(OCCCN(C)C)ccc2c1 [Example 51, N-(5-(2,3-dihydrobenzo[b][1,4]dioxine-6-carboxamido)-2-methylphenyl)-2-(3-(dimethylamino)propoxy)quinoline-6-carboxamide]	4	10		
CNC(=O)c1ccc(C(=O)Nc2cc(NC(=O)c3ccc4c(c3)OCCO4)ccc2C)cn1 [Example 33, N5-(5-(2,3-dihydrobenzo[b][1,4]dioxine-6-carboxamido)-2-methylphenyl)-N2-methylpyridine-2,5-dicarboxamide]	797	230		
COc1cc(C(=O)Nc2cc(NC(=O)c3ccc4c(c3)OCCO4)ccc2C)ccc1Br [Example 41, N-(3-(4-bromo-3-methoxybenzamido)-4-methylphenyl)-2,3-dihydrobenzo[b][1,4]dioxine-6-carboxamide]	104	154		
Cc1ccc(NC(=O)c2ccc3c(c2)OCCO3)cc1NC(=O)c1ccc2c(c1)CCCO2 [Example 9, N-(3-(chroman-6-carboxamido)-4-methylphenyl)-2,3-dihydrobenzo[b][1,4]dioxine-6-carboxamide]	22	90		
Cc1ccc(NC(=O)c2ccc3c(c2)OCCO3)cc1NC(=O)c1ccc2nc(OCCCN3CCCCC3)ccc2c1 [Example 52, N-(5-(2,3-dihydrobenzo[b][1,4]dioxine-6-carboxamido)-2-methylphenyl)-2-(3-(piperidin-1-yl)propoxy)quinoline-6-carboxamide]	12	6		
Cc1ccc(NC(=O)c2ccc3c(c2)OCCO3)cc1NC(=O)c1cnc2cccc(NCCN3CCCC3)c2c1 [Example 148, N-(5-(2,3-dihydrobenzo[b][1,4]dioxine-6-carboxamido)-2-methylphenyl)-5-((2-(pyrrolidin-1-yl)ethyl)amino)quinoline-3-carboxamide]	88	104		
Cc1ccc(NC(=O)c2ccc3c(c2)OCCO3)cc1NC(=O)c1cnc2ccncc2c1 [Example 43, N-(5-(2,3-dihydrobenzo[b][1,4]dioxine-6-carboxamido)-2-methylphenyl)-1,6-naphthyridine-3-carboxamide]	22	34		
Cc1cc2cc(C(=O)Nc3cc(NC(=O)c4ccc5c(c4)OCCO5)ccc3C)cnc2[nH]1 [Example 99, N-(5-(2,3-dihydrobenzo[b][1,4]dioxine-6-carboxamido)-2-methylphenyl)-2-methyl-1H-pyrrolo[2,3-b]pyridine-5-carboxamide]	42	62		
Cc1ccc(NC(=O)c2ccc3c(c2)OCCO3)cc1NC(=O)c1ccc(OCc2ccccn2)cc1 [Example 19, N-(4-methyl-3-(4-(pyridin-2-ylmethoxy)benzamido)phenyl)-2,3-dihydrobenzo[b][1,4]dioxine-6-carboxamide]	289	320		
Cc1ccc(NC(=O)c2ccc3c(c2)OCCO3)cc1NC(=O)c1ccc2ncncc2c1 [Example 10, N-(5-(2,3-dihydrobenzo[b][1,4]dioxine-6-carboxamido)-2-methylphenyl)quinazoline-6-carboxamide]	29	15		
Cc1ccc(NC(=O)c2ccc3c(c2)OCCO3)cc1NC(=O)c1ccc2oc(=O)ccc2c1 [Example 4, N-(4-methyl-3-(2-oxo-2H-chromene-6-carboxamido)phenyl)-2,3-dihydrobenzo[b][1,4]dioxine-6-carboxamide]	10	18		
Cc1ccc(NC(=O)c2ccc3c(c2)OCCO3)cc1NC(=O)c1ccc2nc(OC3CCN(C)CC3)ccc2c1 [Example 50, N-(5-(2,3-dihydrobenzo[b][1,4]dioxine-6-carboxamido)-2-methylphenyl)-2-((1-methylpiperidin-4-yl)oxy)quinoline-6-carboxamide]	3	10		
Cc1ccc(NC(=O)c2ccc3c(c2)OCCO3)cc1NC(=O)c1ccc2nc(OCCN(C)C)ccc2c1 [Example 62, N-(5-(2,3-dihydrobenzo[b][1,4]dioxine-6-carboxamido)-2-methylphenyl)-2-(2-(dimethylamino)ethoxy)quinoline-6-carboxamide]	17	16		
COc1ccc(C(=O)Nc2cc(NC(=O)c3ccc4c(c3)OCCO4)ccc2C)cc1OC [Example 5, N-(3-(3,4-dimethoxybenzamido)-4-methylphenyl)-2,3-dihydrobenzo[b][1,4]dioxine-6-carboxamide]	53	47		
CCC(=O)N(C)Cc1ccc2cc(C(=O)Nc3cc(NC(=O)c4ccc5c(c4)OCCO5)ccc3C)ccc2n1 [Example 78, N-(5-(2,3-dihydrobenzo[b][1,4]dioxine-6-carboxamido)-2-methylphenyl)-2-((N-methylpropionamido)methyl)quinoline-6-carboxamide]	45	91		
N-(5-amino-2-((dimethylamino)methyl)phenyl)-2-methylquinoline-6-carboxamide [Example 165]			5	1
Cc1ccc(NC(=O)c2ccc3c(c2)OCCO3)cc1NC(=O)c1ccc2nc(CCN(C)C)ccc2c1 [Example 69, N-(5-(2,3-dihydrobenzo[b][1,4]dioxine-6-carboxamido)-2-methylphenyl)-2-(2-(dimethylamino)ethyl)quinoline-6-carboxamide]	57	305		
